The values below come from patent US20110086834A1, “ALKYNYL ALCOHOLS AS KINASE INHIBITORS” (AMGEN INC., priority 2008, published 2011).

The structures appear in SMILES notation.

The target of this assay is T1, NIK (Homo sapiens, UniProt Q99558).
T1 construct: Both assays utilize a truncated form of NIK containing only the catalytic domain; made in house; host or cells: baculovirus expression system (insect cells implied)
T1 sequence (Q99558 400-655 limits assumed): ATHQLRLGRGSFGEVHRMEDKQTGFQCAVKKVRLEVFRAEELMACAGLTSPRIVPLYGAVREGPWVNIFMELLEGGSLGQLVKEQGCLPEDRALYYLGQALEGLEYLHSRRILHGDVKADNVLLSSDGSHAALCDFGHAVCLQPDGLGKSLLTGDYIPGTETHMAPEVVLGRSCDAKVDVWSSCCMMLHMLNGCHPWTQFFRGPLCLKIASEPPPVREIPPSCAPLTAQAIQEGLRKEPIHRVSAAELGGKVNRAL
The assay is described as follows: homogenous time resolved fluorescence (HTRF) assay for NIK Ki measurement. The conditions noted are these: truncated NIK (catalytic domain only), autophosphorylation; 10 nM enzyme; 20, 100, 200 or 500 μM ATP; room temperature, 2 hours; read-out: Ki activity in the homogenous time resolved fluorescence (HTRF) assay for NIK. Type of assay: biochemical. The protocol:
Two formats of biochemical assays are implemented: (1) chemiluminescent (CL) assay for NIK IC50 determination; (2) homogenous time resolved fluorescence (HTRF) assay for NIK Ki measurement. […] The NIK proteins are purified with baculovirus expression system and further biotinylated with N-hydroxysuccinamide biotin ester (Sigma). […] The reaction mixtures are then immobilized on a Streptavidin-coated plate (Pierce). […] For the HTRF assay, 10 nM of enzyme are incubated with compounds in the presence of 20, 100, 200, or 500 μM of ATP in a buffer with 20 mM of Hepes pH7.5, 20 mM of MgCl2, 0.2% of Tween 20 and 1 mM of DTT at room temperature for 2 hours.
On the technique in general: TR-FRET usually uses a lanthanide donor and a delayed reading to cut background.
As for `COCCN(C)c1ccc(C#C[C@@](C)(O)c2nccs2)cc1Nc1nc(N)ncc1Cl` [Example 154, (R)-4-(3-(2-Amino-5-chloropyrimidin-4-ylamino)-4-((2-methoxyethyl)(methyl)amino)phenyl)-2-(thiazol-2-yl)but-3-yn-2-ol], the Ki (commonly the dissociation constant of the complex between target and ligand, obtained from inhibition or displacement) is less than 1000 nM.

`Cc1ccc(C(C)(O)C#Cc2ccc3c(c2)N(c2ccnc(N)n2)CC3)o1` (centres unmarked) [Example 275, 4-(1-(2-Amino-4-pyrimidinyl)-2,3-dihydro-1H-indol-6-yl)-2-(5-methyl-2-furanyl)-3-Butyn-2-ol]: the Ki was less than 1000 nM.

As for `C[C@](O)(C#Cc1ccc2c(c1)N(c1nc(N)ncc1Cl)CC21COC1)c1nccs1` [Example 81], the inhibition constant Ki lay in the range of 1000 to 30000 nM.

Turning to `COc1ccc(C#CC2(O)CCCC2)cc1Nc1ccnc(N)n1` [Example 270, 1-((3-((2-amino-4-pyrimidinyl)amino)-4-(methyloxy)phenyl)ethynyl)cyclopentanol], the Ki is less than 1000 nM.

As to `N#Cc1ccc(-c2[nH]c3ccc(C#CC4(O)CCCC4)cc3c2-c2ccnc(N)n2)cc1` [Example 94, 4-(3-(2-aminopyrimidin-4-yl)-5-(2-(1-hydroxycyclopentyl)ethynyl)-1H-indol-2-yl)benzonitrile], the inhibition constant Ki was less than 1000 nM.

Take `C[C@](O)(C#Cc1ccc2c(c1)N(c1nc(N)ncc1Cl)CC21CCOC1)c1nccs1` (single isomer, unassigned) [Example 201, (2S)-4-((3S*)-1′-(2-Amino-5-chloro-4-pyrimidinyl)-1′,2′,4,5-tetrahydrospiro[furan-3,3′-indol]-6′-yl)-2-(1,3-thiazol-2-yl)-3-butyn-2-ol]: the Ki lay in the range of 1000 to 30000 nM.

With `CC(C)(O)C#Cc1ccc2c(c1)N(c1nc(N)ncc1Cl)CC21CCS(=O)(=O)CC1` [Example 217, 4-(1-(2-Amino-5-chloro-4-pyrimidinyl)-1′,1′-dioxido-1,2,2′,3′,5′,6′-hexahydrospiro[indole-3,4′-thiopyran]-6-yl)-2-methyl-3-butyn-2-ol], the Ki is less than 1000 nM.

For the molecule `CC1(CCCO)CN(c2nc(N)ncc2Cl)c2cc(C#CC3(O)CCCC3)ccc21` (centres unmarked) [Example 63, 1-((1-(2-amino-5-chloro-4-pyrimidinyl)-3-(3-hydroxypropyl)-3-methyl-2,3-dihydro-1H-indol-6-yl)ethynyl)cyclopentanol], the Ki is less than 1000 nM.

With `C[C@](O)(C#Cc1ccc(CN2CCOCC2)c(Nc2nc(N)ncc2Cl)c1)c1nccs1` [Example 162, (S)-4-(3-(2-Amino-5-chloropyrimidin-4-ylamino)-4-(morpholinomethyl)phenyl)-2-(thiazol-2-yl)but-3-yn-2-ol], the Ki is less than 1000 nM.

In the case of `CN1CCC2(CC1)CN(c1nc(N)ncc1Cl)c1cc(C#CC3(O)CCCC3)ccc12` [Example 185, 1-((1-(2-Amino-5-chloro-4-pyrimidinyl)-1′-methyl-1,2-dihydrospiro[indole-3,4′-piperidin]-6-yl)ethynyl)cyclopentanol], the inhibitory constant (Ki) is less than 1000 nM.

For the molecule `Cc1cnc(C(C)(O)C#Cc2ccc3c(c2)N(c2ccncc2)CC3(C)C)s1` (centres unmarked) [Example 311, 4-(3,3-Dimethyl-1-(4-pyridinyl)-2,3-dihydro-1H-indol-6-yl)-2-(5-methyl-1,3-thiazol-2-yl)-3-butyn-2-ol], the inhibition constant Ki is less than 1000 nM.

With `C[C@@](O)(C#Cc1ccc2c(c1)N(c1nc(N)ncc1Cl)CC2(CO)CO)c1nccs1` (single isomer, unassigned) [Example 61], the inhibition constant (Ki) was less than 1000 nM.

With `CN1CCOC2(C1)CN(c1nc(N)ncc1Cl)c1cc(C#C[C@@](C)(O)c3nccs3)ccc12` (stereo partly drawn) [Example 36, (2R)-4-[1-(2-amino-5-chloropyrimidin-4-yl)-4′-methyl-1,2-dihydrospiro[indole-3,2′-[1,4]oxazinan]-6-yl]-2-(1,3-thiazol-2-yl)but-3-yn-2-ol], the Ki is less than 1000 nM.

Regarding `CC(O)(C#Cc1ccc2c(c1)N(c1ccnc(N)n1)CC2)C1CCCC1` (centres unmarked) [Example 293, 4-(1-(2-Amino-4-pyrimidinyl)-2,3-dihydro-1H-indol-6-yl)-2-cyclopentyl-3-butyn-2-ol], the inhibition constant (Ki) is less than 1000 nM.

Take `Cc1ccc(S(=O)(=O)n2nccc2C(C)(O)C#Cc2ccc3c(c2)N(c2ccnc(N)n2)CC3)cc1` (centres unmarked) [Example 76, 4-(1-(2-Amino-4-pyrimidinyl)-2,3-dihydro-1H-indol-6-yl)-2-(1-((4-methylphenyl)sulfonyl)-1H-pyrazol-5-yl)-3-butyn-2-ol]: the inhibitory constant (Ki) was less than 1000 nM.

On to `CC(O)(C#Cc1ccc2c(c1)N(c1nc(N)ncc1Cl)CC21CCS(=O)(=O)CC1)c1nccs1` (racemic) [Example 215, (rac)-4-(1-(2-Amino-5-chloro-4-pyrimidinyl)-1′,1′-dioxido-1,2,2′,3′,5′,6′-hexahydrospiro[indole-3,4′-thiopyran]-6-yl)-2-(1,3-thiazol-2-yl)-3-butyn-2-ol], for which the Ki is less than 1000 nM.

`COCC1(C)CN(c2nc(N)nc3[nH]cnc23)c2cc(C#CC3(O)CCCC3)ccc21` (centres unmarked) [Example 69, 1-((1-(2-amino-9H-purin-6-yl)-3-(methoxymethyl)-3-methyl-2,3-dihydro-1H-indol-6-yl)ethynyl)cyclopentanol]: the Ki is less than 1000 nM.

Consider `COCCN1CC2(C1)CN(c1nc(N)ncc1Cl)c1cc(C#C[C@@](C)(O)c3nccs3)ccc12` [Example 183, (2R)-4-(1′-(2-amino-5-chloropyrimidin-4-yl)-1-(2-methoxyethyl)spiro[azetidine-3,3′-indoline]-6′-yl)-2-(thiazol-2-yl)but-3-yn-2-ol], for which the inhibition constant Ki is less than 1000 nM.

As for `CC(O)(C#Cc1ccc2c(c1)N(c1ccnc(N)n1)CC2)c1ccncc1` (centres unmarked) [Example 272, 4-(1-(2-Amino-4-pyrimidinyl)-2,3-dihydro-1H-indol-6-yl)-2-(4-pyridinyl)-3-butyn-2-ol], the Ki was in the range of 1000 to 30000 nM.

On to `COCCOc1cncnc1-c1c[nH]c2ccc(C#CC3(O)CCCC3)cc12` [Example 237, 1-((3-(5-(2-Methoxyethoxy)-4-pyrimidinyl)-1H-indol-5-yl)ethynyl)cyclopentanol], for which the Ki was less than 1000 nM.

In the case of `Cn1cnc(C(O)C#Cc2ccc3c(c2)N(c2nc(N)ncc2Cl)CC3(C)C)c1` (centres unmarked) [Example 46, 3-(1-(2-amino-5-chloro-4-pyrimidinyl)-3,3-dimethyl-2,3-dihydro-1H-indol-6-yl)-1-(1-methyl-1H-imidazol-4-yl)-2-propyn-1-ol], the Ki is less than 1000 nM.

`COc1cc(C#CC2(O)CCCC2)cc2c1c(CO)cn2-c1nc(N)ncc1F` [Example 103, 1-(2-(1-(2-amino-5-fluoropyrimidin-4-yl)-3-(hydroxymethyl)-4-methoxy-1H-indol-6-yl)ethynyl)cyclopentanol]: the Ki is less than 1000 nM.

As to `CN1CC2(C1)CN(c1nc(N)ncc1Cl)c1cc(C#C[C@@](C)(O)c3nccs3)ccc12` (single isomer, unassigned) [Example 182b, (2R*)-4-(1′-(2-Amino-5-chloro-4-pyrimidinyl)-1-methyl-1′,2′-dihydrospiro[azetidine-3,3′-indol]-6′-yl)-2-(1,3-thiazol-2-yl)-3-butyn-2-ol], the Ki is less than 1000 nM.

Turning to `Cc1cnc(C(C)(O)C#Cc2ccc3c(c2)N(c2nc(N)ncc2Cl)CC3(C)C)s1` (centres unmarked) [Example 303, 4-(1-(2-Amino-5-chloro-4-pyrimidinyl)-3,3-dimethyl-2,3-dihydro-1H-indol-6-yl)-2-(5-methyl-1,3-thiazol-2-yl)-3-butyn-2-ol], the Ki was less than 1000 nM.

Take `Cc1csc(C(C)(O)C#Cc2ccc3c(c2)N(c2ccnc(N)n2)CC3)c1` (centres unmarked) [Example 277, 4-(1-(2-amino-4-pyrimidinyl)-2,3-dihydro-1H-indol-6-yl)-2-(4-methyl-2-thienyl)-3-butyn-2-ol]: the inhibition constant Ki is less than 1000 nM.

Consider `CNc1ncc2c(n1)-c1c(nc3ccc(C#CC(C)(C)O)cn13)CCC2` [Example 252, 2-methyl-4-(2-(methylamino)-6,7-dihydro-5H-pyrido[1″,2″:1′,2′]imidazo[4′,′:6,7]-cyclohepta[1,2-d]pyrimidin-11-yl)-3-butyn-2-ol], for which the Ki lay within 1000 to 30000 nM.

In the case of `COc1cc(C#CC2(O)CCCC2)cc2c1ccn2-c1nc(N)ncc1F` [Example 102, 1-((1-(2-amino-5-fluoropyrimidin-4-yl)-4-methoxy-1H-indol-6-yl)ethynyl)cyclopentanol], the inhibition constant Ki is less than 1000 nM.

Regarding `CC(O)(C#Cc1ccc2c(c1)N(c1nc(N)ncc1Cl)CC21CCSCC1)c1nccs1` (racemic) [Example 214, (rac)-4-(1-(2-Amino-5-chloro-4-pyrimidinyl)-1,2,2′,3′,5′,6′-hexahydrospiro[indole-3,4′-thiopyran]-6-yl)-2-(1,3-thiazol-2-yl)-3-butyn-2-ol], the Ki is less than 1000 nM.

For `CC(O)(C#Cc1ccc2c(c1)N(c1ccncc1)CC2(CO)CO)c1nccs1` (centres unmarked) [Example 59, 4-(3,3-bis(hydroxymethyl)-1-(4-pyridinyl)-2,3-dihydro-1H-indol-6-yl)-2-(1,3-thiazol-2-yl)-3-butyn-2-ol], the inhibition constant Ki is less than 1000 nM.

As for `COCCN(C)c1ccc(C#C[C@](C)(O)c2nccs2)cc1Nc1nc(N)ncc1Cl` [Example 153, (S)-4-(3-(2-Amino-5-chloropyrimidin-4-ylamino)-4-((2-methoxyethyl)(methyl)-amino)phenyl)-2-(thiazol-2-yl)but-3-yn-2-ol], the Ki is 1000 to 30000 nM.

Consider `C[C@@](O)(C#Cc1ccc2c(c1)N(c1nc(N)ncc1Cl)CC21CCCC1)c1nccs1` [Example 318], for which the Ki is less than 1000 nM.

For `Cc1ccc(C(C)(O)C#Cc2ccc3c(c2)N(c2ccnc(N)n2)CC3)s1` (centres unmarked) [Example 280, 4-(1-(2-Amino-4-pyrimidinyl)-2,3-dihydro-1H-indol-6-yl)-2-(5-methyl-2-thienyl)-3-butyn-2-ol], the Ki was less than 1000 nM.
